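48-hour exposure; five concentrations; linearly interpolated endpoints. The concentration for 50% growth inhibition is given as GI50.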 Activity calls are given as the source filed them. No stated cut-off is given here; in the data, active = GI50 up to about 1.1 µM and inactive = higher.
Assays:
Test in all cases: NCI tumour cell line growth inhibition, 48 h
786-0 = tested on: 786-0
A498 = tested on: A498
A549 = tested on: A549
ACHN = tested on: ACHN
CAKI-1 = tested on: CAKI-1
CCRF-CEM = tested on: CCRF-CEM
COLO 205 = tested on: COLO 205
DLD-1 = tested on: DLD-1
DMS-114 = tested on: DMS-114
DMS-273 = tested on: DMS-273
EKVX = tested on: EKVX
HCC 2998 = tested on: HCC 2998
HCT-116 = tested on: HCT-116
HCT-15 = tested on: HCT-15
HL-60 = tested on: HL-60
HOP-18 = tested on: HOP-18
HOP-62 = tested on: HOP-62
HOP-92 = tested on: HOP-92
HT-29 = tested on: HT-29
IGROV-1 = tested on: IGROV-1
K562 = tested on: K562
KM-20L2 = tested on: KM-20L2
KM12 = tested on: KM12
LOX IMVI = tested on: LOX IMVI
LXFL 529 = tested on: LXFL 529
M14 = tested on: M14
Malme-3M = tested on: Malme-3M
NCI-H226 = tested on: NCI-H226
NCI-H23 = tested on: NCI-H23
NCI-H460 = tested on: NCI-H460
NCI-H522 = tested on: NCI-H522
OVCAR-3 = tested on: OVCAR-3
OVCAR-4 = tested on: OVCAR-4
OVCAR-5 = tested on: OVCAR-5
OVCAR-8 = tested on: OVCAR-8
RPMI-8226 = tested on: RPMI-8226
RXF 393 = tested on: RXF 393
RXF 631 = tested on: RXF 631
SF-268 = tested on: SF-268
SF-295 = tested on: SF-295
SF-539 = tested on: SF-539
SK-MEL-28 = tested on: SK-MEL-28
SK-MEL-2 = tested on: SK-MEL-2
SK-MEL-5 = tested on: SK-MEL-5
SK-OV-3 = tested on: SK-OV-3
SN12C = tested on: SN12C
SNB-19 = tested on: SNB-19
SNB-75 = tested on: SNB-75
SNB-78 = tested on: SNB-78
SW-620 = tested on: SW-620
TK-10 = tested on: TK-10
U-251 = tested on: U-251
UACC-257 = tested on: UACC-257
UACC-62 = tested on: UACC-62
UO-31 = tested on: UO-31
XF498 = tested on: XF498

COc1ccccc1CC(C)N (stereo unspecified)
GI50 (786-0): > 100 µM (inactive) | GI50 (A498): > 100 µM (inactive) | GI50 (A549): > 100 µM (inactive) | GI50 (ACHN): > 100 µM (inactive) | GI50 (CAKI-1): > 100 µM (inactive) | GI50 (CCRF-CEM): > 100 µM (inactive) | GI50 (COLO 205): > 100 µM (inactive) | GI50 (DLD-1): > 100 µM (inactive) | GI50 (DMS-114): > 100 µM (inactive) | GI50 (DMS-273): > 100 µM (inactive) | GI50 (EKVX): > 100 µM (inactive) | GI50 (HCC 2998): > 100 µM (inactive) | GI50 (HCT-116): > 100 µM (inactive) | GI50 (HCT-15): > 100 µM | GI50 (HL-60): > 100 µM (inactive) | GI50 (HOP-18): > 100 µM (inactive) | GI50 (HOP-62): > 100 µM (inactive) | GI50 (HOP-92): > 100 µM (inactive) | GI50 (HT-29): > 100 µM (inactive) | GI50 (IGROV-1): > 100 µM (inactive) | GI50 (K562): > 100 µM (inactive) | GI50 (KM-20L2): > 100 µM (inactive) | GI50 (KM12): > 100 µM (inactive) | GI50 (LOX IMVI): > 100 µM (inactive) | GI50 (LXFL 529): > 100 µM (inactive) | GI50 (M14): > 100 µM (inactive) | GI50 (Malme-3M): > 100 µM (inactive) | GI50 (NCI-H226): > 100 µM (inactive) | GI50 (NCI-H23): > 100 µM (inactive) | GI50 (NCI-H460): > 100 µM (inactive) | GI50 (NCI-H522): > 100 µM (inactive) | GI50 (OVCAR-3): > 100 µM (inactive) | GI50 (OVCAR-4): > 100 µM (inactive) | GI50 (OVCAR-5): > 100 µM (inactive) | GI50 (OVCAR-8): > 100 µM (inactive) | GI50 (RPMI-8226): > 100 µM (inactive) | GI50 (RXF 393): > 100 µM (inactive) | GI50 (RXF 631): > 100 µM (inactive) | GI50 (SF-268): > 100 µM (inactive) | GI50 (SF-295): > 100 µM (inactive) | GI50 (SF-539): > 100 µM (inactive) | GI50 (SK-MEL-28): > 100 µM (inactive) | GI50 (SK-MEL-2): > 100 µM (inactive) | GI50 (SK-MEL-5): > 100 µM (inactive) | GI50 (SK-OV-3): > 100 µM (inactive) | GI50 (SN12C): > 100 µM (inactive) | GI50 (SNB-19): > 100 µM (inactive) | GI50 (SNB-75): > 100 µM (inactive) | GI50 (SNB-78): > 100 µM (inactive) | GI50 (SW-620): > 100 µM (inactive) | GI50 (TK-10): > 100 µM (inactive) | GI50 (U-251): > 100 µM (inactive) | GI50 (UACC-257): > 100 µM (inactive) | GI50 (UACC-62): > 100 µM (inactive) | GI50 (UO-31): > 100 µM (inactive) | GI50 (XF498): > 100 µM (inactive)
